According to ChEMBL document CHEMBL1152082, “Topographical requirements for delta opioid ligands: The synthesis and biological properties of a cyclic analogue of deltorphin I” (Bioorg Med Chem Lett, 1992):
pIC50: −log10 of the molar value. Bridge positions count the residues as written; N and C are the ends. Square brackets hold non-standard residues; d marks the D form. Peptide text beside a SMILES is read from it.

Columns and labels:
Mu-type opioid receptor [1] = target: Mu-type opioid receptor (Rattus norvegicus, UniProt P33535); assay: Binding affinity against Opioid receptor mu 1 with [3H]CTOP
[2] = target: Delta-type opioid receptor (Rattus norvegicus, UniProt P33533); assay: Binding affinity against delta receptor with [3H][p-Cl-Phe4]-DPDPE
Mu-type opioid receptor [3] = target: Mu-type opioid receptor (Cavia porcellus, UniProt P97266); assay: Inhibitory activity against Guinea pig ileum smooth muscle; assay type: functional, tissue-based
[4] = target: Delta-type opioid receptor (Mus musculus, UniProt P32300); assay: Inhibitory activity against Mouse vas deferens smooth muscle; assay type: functional, tissue-based, Muscle tissue
Sequence of Delta-type opioid receptor (Mus musculus, UniProt P32300) (P32300 whole entry): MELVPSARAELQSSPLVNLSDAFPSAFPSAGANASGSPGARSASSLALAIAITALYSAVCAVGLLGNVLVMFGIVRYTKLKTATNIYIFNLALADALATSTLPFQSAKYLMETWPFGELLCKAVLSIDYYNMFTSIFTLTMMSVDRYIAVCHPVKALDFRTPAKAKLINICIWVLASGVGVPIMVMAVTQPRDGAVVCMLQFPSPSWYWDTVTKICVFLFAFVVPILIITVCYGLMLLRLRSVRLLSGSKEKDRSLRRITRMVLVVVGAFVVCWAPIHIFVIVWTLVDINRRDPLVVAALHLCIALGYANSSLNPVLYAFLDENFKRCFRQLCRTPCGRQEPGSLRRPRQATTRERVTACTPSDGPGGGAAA

Sequence of Mu-type opioid receptor (Rattus norvegicus, UniProt P33535) (P33535 whole entry): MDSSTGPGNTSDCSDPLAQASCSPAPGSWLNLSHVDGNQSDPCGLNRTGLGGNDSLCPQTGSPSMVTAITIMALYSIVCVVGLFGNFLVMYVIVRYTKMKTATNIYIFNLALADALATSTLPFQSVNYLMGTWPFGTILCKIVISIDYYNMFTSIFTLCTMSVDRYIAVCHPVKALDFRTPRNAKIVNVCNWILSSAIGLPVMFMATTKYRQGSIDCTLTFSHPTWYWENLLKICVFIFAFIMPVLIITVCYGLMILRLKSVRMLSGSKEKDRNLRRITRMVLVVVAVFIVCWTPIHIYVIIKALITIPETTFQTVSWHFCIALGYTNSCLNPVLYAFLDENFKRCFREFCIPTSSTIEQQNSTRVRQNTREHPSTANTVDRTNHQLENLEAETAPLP
Sequence of Mu-type opioid receptor (Cavia porcellus, UniProt P97266) (P97266 whole entry): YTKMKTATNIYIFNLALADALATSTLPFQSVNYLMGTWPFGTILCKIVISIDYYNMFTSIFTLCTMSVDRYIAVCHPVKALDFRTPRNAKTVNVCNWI
Sequence of Delta-type opioid receptor (Rattus norvegicus, UniProt P33533) (P33533 whole entry): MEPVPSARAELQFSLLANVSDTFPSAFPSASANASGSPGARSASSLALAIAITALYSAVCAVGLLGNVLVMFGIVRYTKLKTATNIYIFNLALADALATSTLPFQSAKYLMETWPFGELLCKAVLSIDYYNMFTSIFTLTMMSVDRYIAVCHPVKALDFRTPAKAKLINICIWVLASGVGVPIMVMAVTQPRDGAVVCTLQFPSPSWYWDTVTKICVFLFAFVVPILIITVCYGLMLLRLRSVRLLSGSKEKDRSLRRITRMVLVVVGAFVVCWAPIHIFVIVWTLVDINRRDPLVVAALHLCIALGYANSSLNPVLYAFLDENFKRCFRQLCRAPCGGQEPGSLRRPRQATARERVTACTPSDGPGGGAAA

CC(NC(=O)[C@@H](N)Cc1ccc(O)cc1)C(=O)N[C@@H](Cc1ccccc1)C(=O)N[C@@H](CC(=O)O)C(=O)N[C@H](C(=O)N[C@H](C(=O)NCC(N)=O)C(C)C)C(C)C (single isomer, unassigned) [DELTORPHIN C]
pIC50 (Mu-type opioid receptor [1]): 5.67
pIC50 [2]: 9.22
pIC50 (Mu-type opioid receptor [3]): 8.54

CC(C)[C@H](NC(=O)[C@@H]1CSSC[C@@H](NC(=O)[C@@H](N)Cc2ccc(O)cc2)C(=O)N[C@@H](Cc2ccccc2)C(=O)N[C@@H](CC(=O)O)C(=O)N1)C(=O)NCC(N)=O (H-Y[dC]FDCVG-NH2; disulfide 2-5)
pIC50 (Mu-type opioid receptor [1]): 8.29
pIC50 [4]: 9.64
pIC50 [2]: 9.06
pIC50 (Mu-type opioid receptor [3]): 8.53
